≈ marks a conversion by molar mass, not a printed value. Bridge positions count the residues as written; N and C are the ends. Square brackets hold non-standard residues; d marks the D form. Peptide text beside a SMILES is read from it. * marks the point of attachment. X1 = CC[C@H](C)CCCCC(=O)*; Dab = NCC[C@H](N)C(=O)O
What was measured:
Format in all cases: cell-based, Staphylococcus aureus
[1] = test system: S. aureus JE2 graR mutant; conditions: Etest on cation-adjusted Mueller-Hinton agar, 37°C, 22 h
Protocol: (§1) It has been reported that growth medium composition can affect polymyxin MIC ([23]): therefore, we also tested polymyxin B MICs of the WT and atpA, graR, vraG, and vraF mutants by employing the Etest on cation-adjusted Mueller-Hinton (MH) agar. […] Polymyxin B breakpoints for Pseudomonas aeruginosa are susceptible at a MIC of ≤2 μg/ml, intermediate at a MIC of 4 μg/ml, and resistant at a MIC of ≥8 μg/ml, whereas for Acinetobacter spp., a MIC of ≥4 μg/ml is considered resistant.
(§2) The strains used in this study include S. aureus strain JE2 (plasmid-cured derivative of USA300 LAC) and all derivative strains within the Nebraska Transposon Mutant Library (NTML), consisting of 1,920 unique transposon mutants with inactivation of nonessential genes ([15]). The bursa aurealis transposon used to create the collection contains the resistance cassette ermB, which confers resistance to erythromycin ([15]). Additionally we used S. aureus SA113 and two derivatives, SA113 ΔdltA ([9]) and SA113 ΔmprF ([10]). All bacterial strains were cultured at 37°C in tryptic soy broth (TSB) or on tryptic soy agar (TSA), with antimicrobial agents added as indicated. Two methods have been employed to determine MICs to various antimicrobial agents. (i) A 2-fold broth microdilution assay in TSB (100 µl) with an initial inoculum of approximately 5 × 10^5 cells/ml was employed to determine the MICs of polymyxin B sulfate (Sigma), gallidermin (Santa Cruz Biotechnology), nisin (Sigma), bacitracin (Sigma), and LL-37 (Isca Biochemicals). (ii) An Etest (BioMérieux) performed on TSA plates was employed to determine MICs for polymyxin B, colistin, ciprofloxacin, oxacillin, linezolid, gentamicin, vancomycin, and daptomycin. The MIC was determined upon incubation at 37°C for 22 h. When indicated, the Etest (BioMérieux) was performed on Mueller-Hinton agar plates (cation adjusted for calcium and magnesium).

S. aureus JE2 (WT) = conditions: Etest on cation-adjusted Mueller-Hinton agar, 37°C, 22 h
Protocol: as §1, §2

[2] = test system: S. aureus JE2 vraG mutant; conditions: Etest on cation-adjusted Mueller-Hinton agar, 37°C, 22 h
Protocol: as §1, §2

[3] = test system: S. aureus JE2 atpA mutant; conditions: Etest on cation-adjusted Mueller-Hinton agar, 37°C, 22 h
Protocol: as §1, §2

[4] = test system: S. aureus JE2 vraF mutant; conditions: Etest on cation-adjusted Mueller-Hinton agar, 37°C, 22 h
Protocol: as §1, §2

[5] = test system: S. aureus SA113 (wild type); conditions: MIC method not given, 37°C, 22 h
Source text: (§3) Lysinylation of phosphatidylglycerols therefore seems to mediate selective protection against certain cationic antimicrobial peptides.
as §2, with “The MIC was determined upon incubation at 37°C for 22 h. When indicated, the Etest (BioMérieux) was performed on Mueller-Hinton agar plates (cation adjusted for calcium and magnesium).” left out

[6] = test system: S. aureus SA113 ΔmprF mutant; conditions: MIC method not given, 37°C, 22 h
Source text: as §3
as §2, with “The MIC was determined upon incubation at 37°C for 22 h. When indicated, the Etest (BioMérieux) was performed on Mueller-Hinton agar plates (cation adjusted for calcium and magnesium).” left out

[7] = test system: S. aureus JE2 transposon mutant SAUSA300_1254 (hypothetical protein); conditions: Etest on TSA, 37°C, 22 h
Source text: (§4) Staphylococcus aureus is intrinsically resistant to the clinically approved cationic antimicrobial peptides polymyxin B (PMB) and colistin ([1], [16]). […] The MIC for PMB was subsequently determined using Etests for the identified mutants. Nineteen mutants were confirmed to be at least 2-fold more susceptible than the WT (Table 1). As expected, we identified transposon insertions in graS, graR, vraF, and vraG, corroborating previous work on these determinants in S. aureus in relation to increased PMB susceptibility ([12]).
as §2

[8] = test system: S. aureus JE2 yajC transposon mutant (SAUSA300_1594); conditions: Etest on TSA, 37°C, 22 h
Source text: as §4, §2

[9] = test system: S. aureus JE2 transposon mutant SAUSA300_1802 (hypothetical protein); conditions: Etest on TSA, 37°C, 22 h
Source text: as §4, §2

[10] = test system: S. aureus JE2 transposon mutant SAUSA300_1495 (hypothetical protein); conditions: Etest on TSA, 37°C, 22 h
Source text: as §4, §2

[11] = test system: S. aureus JE2 transposon mutant SAUSA300_0980 (hypothetical protein); conditions: Etest on TSA, 37°C, 22 h
Source text: as §4, §2

[12] = test system: S. aureus JE2 transposon mutant SAUSA300_0918 (diacylglycerol glucosyltransferase); conditions: Etest on TSA, 37°C, 22 h
Source text: as §4, §2

[13] = test system: S. aureus JE2 atpB transposon mutant (SAUSA300_2064); conditions: Etest on TSA
Source text: as §4, §2

[14] = test system: S. aureus JE2 graS transposon mutant (SAUSA300_0646); conditions: Etest on TSA
Source text: as §4, §2

[15] = test system: S. aureus JE2 atpH transposon mutant (SAUSA300_2061); conditions: Etest on TSA
Source text: as §4, §2

[16] = test system: S. aureus JE2 atpG transposon mutant (SAUSA300_2059); conditions: Etest on TSA
Source text: as §4, §2

[17] = test system: S. aureus JE2 lspA transposon mutant (SAUSA300_1089); conditions: Etest on TSA, 37°C, 22 h
Source text: as §4, §2

[18] = test system: S. aureus JE2 trkA transposon mutant (SAUSA300_0988); conditions: Etest on TSA, 37°C, 22 h
Source text: as §4, §2

[19] = test system: S. aureus JE2 transposon mutant SAUSA300_1785 (putative ABC transporter protein EcsB); conditions: Etest on TSA, 37°C, 22 h
Source text: as §4, §2

[20] = test system: S. aureus JE2 cbiO transposon mutant (SAUSA300_2176); conditions: Etest on TSA, 37°C, 22 h
Source text: as §4, §2

[21] = test system: S. aureus JE2 vraS transposon mutant (SAUSA300_1866); conditions: Etest on TSA, 37°C, 22 h
Source text: as §4, §2

CC[C@H](C)CCCCC(=O)N[C@@H](CCN)C(=O)N[C@H](C(=O)N[C@@H](CCN)C(=O)N[C@H]1CCNC(=O)[C@H]([C@@H](C)O)NC(=O)[C@H](CCN)NC(=O)[C@H](CCN)NC(=O)[C@H](CC(C)C)NC(=O)[C@@H](Cc2ccccc2)NC(=O)[C@H](CCN)NC1=O)[C@@H](C)O [Polymyxin B, polymyxin B] (X1-[Dab]T[Dab][Dab][Dab][dF]L[Dab][Dab]T; lactam 4-C (inferred); N-terminus assumed)
MIC [1]: 1 to 2 µg/mL
MIC (S. aureus JE2 (WT)): 8 to 16 µg/mL
MIC [2]: 1.5 to 2 µg/mL
MIC [3]: 2 to 4 µg/mL
MIC [4]: 1.5 to 2 µg/mL
MIC [5]: 512 µg/mL (≈ 425 µM)
MIC [6]: 384 µg/mL (≈ 319 µM)
MIC [7]: 48 µg/mL (≈ 39.9 µM)
MIC [8]: 64 µg/mL (≈ 53.2 µM)
MIC [9]: 64 µg/mL (≈ 53.2 µM)
MIC [10]: 64 µg/mL (≈ 53.2 µM)
MIC [11]: 48 µg/mL (≈ 39.9 µM)
MIC [12]: 64 µg/mL (≈ 53.2 µM)
MIC ([13]; 37°C, 22 h, atpB mutant): 16 µg/mL (≈ 13.3 µM)
fold reduction in MIC relative to WT ([13]; atpB mutant vs WT JE2): 8 fold
MIC ([14]; 37°C, 22 h, graS mutant): 24 µg/mL (≈ 19.9 µM)
fold reduction in MIC relative to WT ([14]; graS mutant vs WT JE2): 8 fold
MIC ([15]; 37°C, 22 h, atpH mutant): 16 µg/mL (≈ 13.3 µM)
fold reduction in MIC relative to WT ([15]; atpH mutant vs WT JE2): 8 fold
MIC ([16]; 37°C, 22 h, atpG mutant): 16 µg/mL (≈ 13.3 µM)
fold reduction in MIC relative to WT ([16]; atpG mutant vs WT JE2): 8 fold
MIC [17]: 64 µg/mL (≈ 53.2 µM)
MIC [18]: 48 µg/mL (≈ 39.9 µM)
MIC [19]: 48 µg/mL (≈ 39.9 µM)
MIC [20]: 48 µg/mL (≈ 39.9 µM)
MIC [21]: 64 µg/mL (≈ 53.2 µM)

— publication PMC5587909, “Inhibition of the ATP Synthase Eliminates the Intrinsic Resistance of Staphylococcus aureus towards Polymyxins” (mBio, 2017)
